Results as given in patent EP0726263A2, “Herbicidal (1,3,4)oxadiazoles and thiadiazoles” (American Cyanamid Company, priority 1995, dated 1996).

Columns and labels:
Type in all cases: in vivo
Alopecurus myosuroides [1] = test: Herbicidal activity, postemergence test; conditions: post; sprayed onto seedling plants, 800 g of active material per hectare; evaluated 2 weeks after treatment
Procedure, shortened: (§1)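 Spray dose 800 g a.i./ha in 900 L/ha; acetone stock with 0.4% Triton X-155, water-diluted. Pre: sown loam soil, read at 3 wk. Post: seedling plants, read at 2 wk. Visual 0-9 rating vs untreated.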

Abutilon theophrasti [2] = test: Herbicidal activity, postemergence test; conditions: post; sprayed onto seedling plants, 800 g of active material per hectare; evaluated 2 weeks after treatment
Procedure, shortened: as §1

Triticum aestivum [3] = test: Herbicidal activity, postemergence test; conditions: post; sprayed onto seedling plants, 800 g of active material per hectare; evaluated 2 weeks after treatment
Procedure, shortened: as §1

Ambrosia artemisifolia [4] = test: Herbicidal activity, postemergence test; conditions: post; sprayed onto seedling plants, 800 g of active material per hectare; evaluated 2 weeks after treatment
Procedure, shortened: as §1

Chenopodium album [5] = test: Herbicidal activity, postemergence test; conditions: post; sprayed onto seedling plants, 800 g of active material per hectare; evaluated 2 weeks after treatment
Procedure, shortened: as §1

Gossypium hirsutum [6] = test: Herbicidal activity, postemergence test; conditions: post; sprayed onto seedling plants, 800 g of active material per hectare; evaluated 2 weeks after treatment
Procedure, shortened: as §1

Zea mays [7] = test: Herbicidal activity, postemergence test; conditions: post; sprayed onto seedling plants, 800 g of active material per hectare; evaluated 2 weeks after treatment
Procedure, shortened: as §1

Veronica persica [8] = test: Herbicidal activity, postemergence test; conditions: post; sprayed onto seedling plants, 800 g of active material per hectare; evaluated 2 weeks after treatment
Procedure, shortened: as §1

Hordeum vulgare [9] = test: Herbicidal activity, postemergence test; conditions: post; sprayed onto seedling plants, 800 g of active material per hectare; evaluated 2 weeks after treatment
Procedure, shortened: as §1

Amaranthus retroflexus [10] = test: Herbicidal activity, postemergence test; conditions: post; sprayed onto seedling plants, 800 g of active material per hectare; evaluated 2 weeks after treatment
Procedure, shortened: as §1

Galium aparine [11] = test: Herbicidal activity, postemergence test; conditions: post; sprayed onto seedling plants, 800 g of active material per hectare; evaluated 2 weeks after treatment
Procedure, shortened: as §1

Stellaria media [12] = test: Herbicidal activity, postemergence test; conditions: post; sprayed onto seedling plants, 800 g of active material per hectare; evaluated 2 weeks after treatment
Procedure, shortened: as §1

Lamium purpureum [13] = test: Herbicidal activity, postemergence test; conditions: post; sprayed onto seedling plants, 800 g of active material per hectare; evaluated 2 weeks after treatment
Procedure, shortened: as §1

Matricaria inodora [14] = test: Herbicidal activity, postemergence test; conditions: post; sprayed onto seedling plants, 800 g of active material per hectare; evaluated 2 weeks after treatment
Procedure, shortened: as §1

Glycine max [15] = test: Herbicidal activity, postemergence test; conditions: post; sprayed onto seedling plants, 800 g of active material per hectare; evaluated 2 weeks after treatment
Procedure, shortened: as §1

Papaver rhoeas [16] = test: Herbicidal activity, postemergence test; conditions: post; sprayed onto seedling plants, 800 g of active material per hectare; evaluated 2 weeks after treatment
Procedure, shortened: as §1

Setaria viridis [17] = test: Herbicidal activity, postemergence test; conditions: post; sprayed onto seedling plants, 800 g of active material per hectare; evaluated 2 weeks after treatment
Procedure, shortened: as §1

Ipomoea hederacea [18] = test: Herbicidal activity, postemergence test; conditions: post; sprayed onto seedling plants, 800 g of active material per hectare; evaluated 2 weeks after treatment
Procedure, shortened: as §1

Alopecurus myosuroides [19] = test: Herbicidal activity, preemergence test; conditions: pre; sprayed onto soil, 800 g of active material per hectare; evaluated 3 weeks after treatment
Procedure, shortened: as §1

Abutilon theophrasti [20] = test: Herbicidal activity, preemergence test; conditions: pre; sprayed onto soil, 800 g of active material per hectare; evaluated 3 weeks after treatment
Procedure, shortened: as §1

Triticum aestivum [21] = test: Herbicidal activity, preemergence test; conditions: pre; sprayed onto soil, 800 g of active material per hectare; evaluated 3 weeks after treatment
Procedure, shortened: as §1

Ambrosia artemisifolia [22] = test: Herbicidal activity, preemergence test; conditions: pre; sprayed onto soil, 800 g of active material per hectare; evaluated 3 weeks after treatment
Procedure, shortened: as §1

Chenopodium album [23] = test: Herbicidal activity, preemergence test; conditions: pre; sprayed onto soil, 800 g of active material per hectare; evaluated 3 weeks after treatment
Procedure, shortened: as §1

Gossypium hirsutum [24] = test: Herbicidal activity, preemergence test; conditions: pre; sprayed onto soil, 800 g of active material per hectare; evaluated 3 weeks after treatment
Procedure, shortened: as §1

Zea mays [25] = test: Herbicidal activity, preemergence test; conditions: pre; sprayed onto soil, 800 g of active material per hectare; evaluated 3 weeks after treatment
Procedure, shortened: as §1

Veronica persica [26] = test: Herbicidal activity, preemergence test; conditions: pre; sprayed onto soil, 800 g of active material per hectare; evaluated 3 weeks after treatment
Procedure, shortened: as §1

Hordeum vulgare [27] = test: Herbicidal activity, preemergence test; conditions: pre; sprayed onto soil, 800 g of active material per hectare; evaluated 3 weeks after treatment
Procedure, shortened: as §1

Amaranthus retroflexus [28] = test: Herbicidal activity, preemergence test; conditions: pre; sprayed onto soil, 800 g of active material per hectare; evaluated 3 weeks after treatment
Procedure, shortened: as §1

Galium aparine [29] = test: Herbicidal activity, preemergence test; conditions: pre; sprayed onto soil, 800 g of active material per hectare; evaluated 3 weeks after treatment
Procedure, shortened: as §1

Stellaria media [30] = test: Herbicidal activity, preemergence test; conditions: pre; sprayed onto soil, 800 g of active material per hectare; evaluated 3 weeks after treatment
Procedure, shortened: as §1

Lamium purpureum [31] = test: Herbicidal activity, preemergence test; conditions: pre; sprayed onto soil, 800 g of active material per hectare; evaluated 3 weeks after treatment
Procedure, shortened: as §1

Matricaria inodora [32] = test: Herbicidal activity, preemergence test; conditions: pre; sprayed onto soil, 800 g of active material per hectare; evaluated 3 weeks after treatment
Procedure, shortened: as §1

Glycine max [33] = test: Herbicidal activity, preemergence test; conditions: pre; sprayed onto soil, 800 g of active material per hectare; evaluated 3 weeks after treatment
Procedure, shortened: as §1

Papaver rhoeas [34] = test: Herbicidal activity, preemergence test; conditions: pre; sprayed onto soil, 800 g of active material per hectare; evaluated 3 weeks after treatment
Procedure, shortened: as §1

Setaria viridis [35] = test: Herbicidal activity, preemergence test; conditions: pre; sprayed onto soil, 800 g of active material per hectare; evaluated 3 weeks after treatment
Procedure, shortened: as §1

Ipomoea hederacea [36] = test: Herbicidal activity, preemergence test; conditions: pre; sprayed onto soil, 800 g of active material per hectare; evaluated 3 weeks after treatment
Procedure, shortened: as §1

Structure (SMILES) | ALOMY control rating (0-9) (Alopecurus myosuroides [1]) | ABUTH control rating (0-9) (Abutilon theophrasti [2]) | TRZAW control rating (0-9) (Triticum aestivum [3]) | AMBEL control rating (0-9) (Ambrosia artemisifolia [4]) | CHEAL control rating (0-9) (Chenopodium album [5]) | GOSHI control rating (0-9) (Gossypium hirsutum [6]) | ZEAMX control rating (0-9) (Zea mays [7]) | VERPE control rating (0-9) (Veronica persica [8]) | HORVW control rating (0-9) (Hordeum vulgare [9]) | AMARE control rating (0-9) (Amaranthus retroflexus [10]) | GALAP control rating (0-9) (Galium aparine [11]) | STEME control rating (0-9) (Stellaria media [12]) | LAMPU control rating (0-9) (Lamium purpureum [13]) | MATIN control rating (0-9) (Matricaria inodora [14]) | GLXMA control rating (0-9) (Glycine max [15]) | PAPRH control rating (0-9) (Papaver rhoeas [16]) | SETVI control rating (0-9) (Setaria viridis [17]) | IPOHE control rating (0-9) (Ipomoea hederacea [18]) | ALOMY control rating (0-9) (Alopecurus myosuroides [19]) | ABUTH control rating (0-9) (Abutilon theophrasti [20]) | further results
C[C@H](NC(=O)c1nnc(-c2ccccc2Cl)o1)c1ccccc1 [Example 21] | 0 (no effect) | 5 (definite injury) | 2 (slight effect) | 6 (herbicidal effect) | 7 (good herbicidal effect) | 8 (approaching complete kill) | 2 (slight effect) | 7 (good herbicidal effect) | 1 (trace effect) | 8 (approaching complete kill) | 4 (injury) | 9 (complete kill) | 6 (herbicidal effect) | 4 (injury) | 2 (slight effect) | 5 (definite injury) | 6 (herbicidal effect) | 4 (injury) | 0 (no effect) | 0 (no effect) | TRZAW control rating (0-9) (Triticum aestivum [21]): 0 (no effect); AMBEL control rating (0-9) (Ambrosia artemisifolia [22]): 0 (no effect); CHEAL control rating (0-9) (Chenopodium album [23]): 2 (slight effect); GOSHI control rating (0-9) (Gossypium hirsutum [24]): 0 (no effect); ZEAMX control rating (0-9) (Zea mays [25]): 0 (no effect); VERPE control rating (0-9) (Veronica persica [26]): 9 (complete kill); HORVW control rating (0-9) (Hordeum vulgare [27]): 0 (no effect); AMARE control rating (0-9) (Amaranthus retroflexus [28]): 3 (moderate effect); GALAP control rating (0-9) (Galium aparine [29]): 0 (no effect); STEME control rating (0-9) (Stellaria media [30]): 5 (definite injury); LAMPU control rating (0-9) (Lamium purpureum [31]): 5 (definite injury); MATIN control rating (0-9) (Matricaria inodora [32]): 6 (herbicidal effect); GLXMA control rating (0-9) (Glycine max [33]): 0 (no effect); PAPRH control rating (0-9) (Papaver rhoeas [34]): 9 (complete kill); SETVI control rating (0-9) (Setaria viridis [35]): 1 (trace effect); IPOHE control rating (0-9) (Ipomoea hederacea [36]): 1 (trace effect)
C[C@H](NC(=O)c1nnc(-c2ccc(C(F)(F)F)cc2)o1)c1ccccc1 [Example 23] | 3 (moderate effect) | 9 (complete kill) | 3 (moderate effect) | 8 (approaching complete kill) | 9 (complete kill) | 9 (complete kill) | 3 (moderate effect) | 9 (complete kill) | 4 (injury) | 9 (complete kill) | 7 (good herbicidal effect) | 9 (complete kill) | 9 (complete kill) | 8 (approaching complete kill) | 5 (definite injury) | 8 (approaching complete kill) | 9 (complete kill) | 8 (approaching complete kill) | 4 (injury) | 5 (definite injury) | TRZAW control rating (0-9) (Triticum aestivum [21]): 0 (no effect); AMBEL control rating (0-9) (Ambrosia artemisifolia [22]): 0 (no effect); CHEAL control rating (0-9) (Chenopodium album [23]): 8 (approaching complete kill); GOSHI control rating (0-9) (Gossypium hirsutum [24]): 0 (no effect); ZEAMX control rating (0-9) (Zea mays [25]): 1 (trace effect); VERPE control rating (0-9) (Veronica persica [26]): 9 (complete kill); HORVW control rating (0-9) (Hordeum vulgare [27]): 0 (no effect); AMARE control rating (0-9) (Amaranthus retroflexus [28]): 9 (complete kill); GALAP control rating (0-9) (Galium aparine [29]): 0 (no effect); STEME control rating (0-9) (Stellaria media [30]): 8 (approaching complete kill); LAMPU control rating (0-9) (Lamium purpureum [31]): 7 (good herbicidal effect); MATIN control rating (0-9) (Matricaria inodora [32]): 8 (approaching complete kill); GLXMA control rating (0-9) (Glycine max [33]): 0 (no effect); PAPRH control rating (0-9) (Papaver rhoeas [34]): 9 (complete kill); SETVI control rating (0-9) (Setaria viridis [35]): 8 (approaching complete kill); IPOHE control rating (0-9) (Ipomoea hederacea [36]): 0 (no effect)
